Values quoted from earlier work, collected in patent publication US11654127B2, “Composition for use in the prevention and/or treatment of Oncologic Treatment Induced Orogastrointestinal Mucositis” (Mucosa Innovations, S.L., priority 2017, dated 2023).

System: OTIOM
Conditions: saliva stimulant

CC[C@@H]1C(=O)OC[C@@H]1Cc1cncn1C [pilocarpine]
effect in preventing or treating OTIOM: no beneficial effect
